Measurements as given in patent EP2027081B1, “THERAPEUTIC PROSTAGLANDIN COMPOUNDS FOR THE TREATMENT OF GLAUCOMA” (ALLERGAN, INC., priority 2006, dated 2007).

What was measured:
hEP2/Gqs5 = molecular target: T1, hEP2/Gqs5 (Homo sapiens, UniProt P43116); experiment: FLIPR calcium signal study, HEK-293(EBNA) cells; type: cell-based; settings: Table 1; Ca2+ signal; NA means not active; read-out: FUNCTIONAL (Ca2+, EC50, nM) HEP 2
T1 construct: expressed in transfected cells; host or cells: HEK-293(EBNA)
Description: (§1) Cells were seeded at a density of 5x10^4 cells per well in Biocoat® Poly-D-lysine-coated black-wall, clear-bottom 96-well plates (Becton-Dickinson) and allowed to attach overnight in an incubator at 37 °C. Cells were then washed two times with HBSS-HEPES buffer (Hanks Balanced Salt Solution without bicarbonate and phenol red, 20 mM HEPES, pH 7.4) using a Denley Cellwash plate washer (Labsystems). After 45 minutes of dye-loading in the dark, using the calcium-sensitive dye Fluo-4 AM at a final concentration of 2 µM, plates were washed four times with HBSS-HEPES buffer to remove excess dye leaving 100 µl in each well. Plates were re-equilibrated to 37 °C for a few minutes.
Cells were excited with an Argon laser at 488 nm, and emission was measured through a 510-570 nm bandwidth emission filter (FLIPR™, Molecular Devices, Sunnyvale, CA). […] The peak increase in fluorescence intensity was recorded for each well. […] The peak fluorescence change in each drug-containing well was then expressed relative to the controls.
(§2) Compounds were tested in a high-throughput (HTS) or concentration-response (CoRe) format. In the HTS format, forty-four compounds per plate were examined in duplicates at a concentration of 10^-5 M. To generate concentration-response curves, four compounds per plate were tested in duplicates in a concentration range between 10^-5 and 10^-11 M. The duplicate values were averaged.

hDP/Gqs5 = molecular target: T2, hDP/Gqs5 (Homo sapiens, UniProt Q13258); experiment: FLIPR calcium signal study, HEK-293(EBNA) cells; type: cell-based; settings: Table 1; NA means not active; read-out: FUNCTIONAL (Ca2+, EC50, nM) HDP
T2 construct: expressed in transfected cells; host or cells: HEK-293(EBNA)
Description: HEK-293(EBNA) cells, stably expressing one type or subtype of recombinant human prostaglandin receptors (prostaglandin receptors expressed: hDP/Gqs5; hEP1; hEP2/Gqs5; hEP3A/Gqi5; hEP4/Gqs5; hFP; hIP; hTP), were cultured in 100 mm culture dishes in high-glucose DMEM medium containing 10% fetal bovine serum, 2 mM I-glutamine, 250 µg/ml geneticin (G418) and 200 µg/ml hygromycin B as selection markers, and 100 units/ml penicillin G, 100 µg/ml streptomycin and 0.25 µg/ml amphotericin B.
as §1
Cells were excited with an Argon laser at 488 nm, and emission was measured through a 510-570 nm bandwidth emission filter (FLIPR™, Molecular Devices, Sunnyvale, CA). Drug solution was added in a 50 µl volume to each well to give the desired final concentration. The peak increase in fluorescence intensity was recorded for each well. On each plate, four wells each served as negative (HBSS-HEPES buffer) and positive controls (standard agonists: BW245C (hDP); PGE2 (hEP1; hEP2/Gqs5; hEP3A/Gqi5; hEP4/Gqs5); PGF2α (hFP); carbacyclin (hIP); U-46619 (hTP), depending on receptor). The peak fluorescence change in each drug-containing well was then expressed relative to the controls.
as §2, with “averaged. In either, HTS or CoRe format each compound was tested on at least 3 separate plates using cells from different passages to give an n ≥ 3.” for “averaged.”

T2 sequence (Q13258 whole entry): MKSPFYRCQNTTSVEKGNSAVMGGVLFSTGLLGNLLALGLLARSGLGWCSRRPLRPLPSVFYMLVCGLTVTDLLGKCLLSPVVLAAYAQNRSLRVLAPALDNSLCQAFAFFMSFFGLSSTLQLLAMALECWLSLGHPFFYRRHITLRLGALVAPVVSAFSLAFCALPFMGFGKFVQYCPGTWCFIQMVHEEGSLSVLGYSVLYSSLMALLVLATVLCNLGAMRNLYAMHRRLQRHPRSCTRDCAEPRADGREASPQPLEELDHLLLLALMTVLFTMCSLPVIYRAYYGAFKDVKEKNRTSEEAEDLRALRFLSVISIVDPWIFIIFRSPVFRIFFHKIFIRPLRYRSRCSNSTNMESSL
T1 sequence (P43116 whole entry): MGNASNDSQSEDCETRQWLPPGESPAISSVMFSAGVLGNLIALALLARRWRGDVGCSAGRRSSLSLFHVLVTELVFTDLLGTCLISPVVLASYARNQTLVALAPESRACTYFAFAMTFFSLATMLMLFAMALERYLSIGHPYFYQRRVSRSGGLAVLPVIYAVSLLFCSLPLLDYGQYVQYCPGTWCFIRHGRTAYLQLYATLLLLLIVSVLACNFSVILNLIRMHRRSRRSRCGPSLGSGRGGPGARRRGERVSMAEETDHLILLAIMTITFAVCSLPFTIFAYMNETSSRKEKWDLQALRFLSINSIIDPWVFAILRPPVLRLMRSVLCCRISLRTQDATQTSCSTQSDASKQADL

Which results are given for CCCC1(C(O)c2ccc([C@H]3CCC(=O)[C@@H]3C/C=C\CCCC(=O)O)cc2)CCC1 (some centres unmarked) [Entry 6]?
EC50 (hEP2/Gqs5): 2870 nM; EC50 (hDP/Gqs5): > 10000 nM
